# Structures can show the parent of a compound that is named as a salt.
# Tests used:
# hNav1.7 [1] = molecular target: T1, hNav1.7 (Homo sapiens (Human), UniProt Q15858); test: Tritiated compound binding to membranes from cells expressing hNav1.7 and the β1 subunit (Nav1.7 LBA EVO); settings: competitive binding vs [3H]compound, membranes with hNav1.7 and β1 subunit
# Experimental: Example 64a. Tritiated Compound Binding to Membranes Isolated from Cells that Heterologously Express hNav1.7 and the β1 Subunit
# Preparation of membranes containing recombinantly expressed sodium channels: Frozen recombinant cell pellets are thawed on ice and diluted to 4 times the cell pellet weight with ice cold 50 mM Tris HCl, pH 7.4 buffer. The cell suspensions are homogenized on ice using a motorized glass dounce homogeniser. Homogenates are further diluted 8.4 times with ice cold 50 mM Tris HCl, pH 7.4 buffer and then centrifuged at 200×g at 4° C. for 15 minutes. The supernatants are collected and centrifuged at 10000×g at 4° C. for 50 min. The pellets are then re-suspended in 100 mM NaCl, 20 mM Tris HCl, pH 7.4 buffer containing 1% v/v protease inhibitors (Calbiochem) and re-homogenized on ice. The homogenized membranes are then processed through a syringe equipped with a 26 gauge needle. Protein concentrations arer determined by Bradford Assay and the membranes are stored at −80° C.
# Radioligand Binding Studies: Saturation experiments. A competitive NaV1.7 inhibitor having a methyl group is tritiated. Three tritiums are incorporated in place of methyl hydrogens to generate [^3H]compound. Binding of this radioligand is performed in 5 mL borosilicate glass test tubes at room temperature. Binding is initiated by adding membranes to increasing concentrations of [^3H]compound in 100 mM NaCl, 20 mM Tris HCl, pH 7.4 buffer containing 0.01% w/v bovine serum albumin (BSA) for 18 h. Non-specific binding is determined in the presence of 1 μM unlabeled compound. After 18 h, the reactants are filtered through GF/C glass fiber filters presoaked in 0.5% w/v polyethylene imine. Filters are washed with 15 mL ice cold 100 mM NaCl, 20 mM Tris HCl, pH7.4 buffer containing 0.25% BSA to separate bound from free ligand. [^3H]compound bound to filters is quantified by liquid scintillation counting.
# Competitive binding experiments: Binding reactions are performed in 96-well polypropylene plates at room temperature for 18 h. In 360 μL, membranes are incubated with 100 pM [^3H]compound and increasing concentrations of Test Compound. Non-specific binding is defined in the presence of 1 μM unlabeled compound. Reactions are transferred and filtered through 96-well glass fiber/C filter plates presoaked with 0.5% polyethylene imine. The filtered reactions are washed 5 times with 200 μL ice cold buffer containing 0.25% BSA. Bound radioactivity is determined by liquid scintillation counting.
# Data Analysis: For saturation experiments, non-specific binding is subtracted from total binding to provide specific binding and these values are recalculated in terms of pmol ligand bound per mg protein. Saturation curves are constructed and dissociation constants are calculated using the single site ligand binding model: Beq=(Bmax*X)/(X+Kd), where Beq is the amount of ligand bound at equilibrium, Bmax is the maximum receptor density, Kd is the dissociation constant for the ligand, and X is the free ligand concentration. For competition studies percent inhibition is determined and IC50 values are calculated using a 4 parameter logistic model (% inhibition=(A+((B−A)/(1+((x/C)^D)))) using XLfit, where A and B are the maximal and minimum inhibition respectively, C is the IC50 concentration and D is the (Hill) slope.
# Example 64b. Tritiated Compound Binding to Membranes Isolated from Cells that Heterologous Express hNav1.7 and the β1 Subunit
# Preparation of membranes containing recombinantly expressed sodium channels: Following the procedure described in 31a, and making modifications as required to: centrifuge supernatants at 100000×g instead of 10000×g; re-suspend pellets in a buffer containing 0.01% BSA in addition to 100 mM NaCl, 20 mM Tris HCl, pH 7.4 buffer, and 1% v/v […]; and storing membranes at −80° C. in single use aliquots instead of pooled. […]
# Target sequence in this assay (Q15858 whole entry, looked up): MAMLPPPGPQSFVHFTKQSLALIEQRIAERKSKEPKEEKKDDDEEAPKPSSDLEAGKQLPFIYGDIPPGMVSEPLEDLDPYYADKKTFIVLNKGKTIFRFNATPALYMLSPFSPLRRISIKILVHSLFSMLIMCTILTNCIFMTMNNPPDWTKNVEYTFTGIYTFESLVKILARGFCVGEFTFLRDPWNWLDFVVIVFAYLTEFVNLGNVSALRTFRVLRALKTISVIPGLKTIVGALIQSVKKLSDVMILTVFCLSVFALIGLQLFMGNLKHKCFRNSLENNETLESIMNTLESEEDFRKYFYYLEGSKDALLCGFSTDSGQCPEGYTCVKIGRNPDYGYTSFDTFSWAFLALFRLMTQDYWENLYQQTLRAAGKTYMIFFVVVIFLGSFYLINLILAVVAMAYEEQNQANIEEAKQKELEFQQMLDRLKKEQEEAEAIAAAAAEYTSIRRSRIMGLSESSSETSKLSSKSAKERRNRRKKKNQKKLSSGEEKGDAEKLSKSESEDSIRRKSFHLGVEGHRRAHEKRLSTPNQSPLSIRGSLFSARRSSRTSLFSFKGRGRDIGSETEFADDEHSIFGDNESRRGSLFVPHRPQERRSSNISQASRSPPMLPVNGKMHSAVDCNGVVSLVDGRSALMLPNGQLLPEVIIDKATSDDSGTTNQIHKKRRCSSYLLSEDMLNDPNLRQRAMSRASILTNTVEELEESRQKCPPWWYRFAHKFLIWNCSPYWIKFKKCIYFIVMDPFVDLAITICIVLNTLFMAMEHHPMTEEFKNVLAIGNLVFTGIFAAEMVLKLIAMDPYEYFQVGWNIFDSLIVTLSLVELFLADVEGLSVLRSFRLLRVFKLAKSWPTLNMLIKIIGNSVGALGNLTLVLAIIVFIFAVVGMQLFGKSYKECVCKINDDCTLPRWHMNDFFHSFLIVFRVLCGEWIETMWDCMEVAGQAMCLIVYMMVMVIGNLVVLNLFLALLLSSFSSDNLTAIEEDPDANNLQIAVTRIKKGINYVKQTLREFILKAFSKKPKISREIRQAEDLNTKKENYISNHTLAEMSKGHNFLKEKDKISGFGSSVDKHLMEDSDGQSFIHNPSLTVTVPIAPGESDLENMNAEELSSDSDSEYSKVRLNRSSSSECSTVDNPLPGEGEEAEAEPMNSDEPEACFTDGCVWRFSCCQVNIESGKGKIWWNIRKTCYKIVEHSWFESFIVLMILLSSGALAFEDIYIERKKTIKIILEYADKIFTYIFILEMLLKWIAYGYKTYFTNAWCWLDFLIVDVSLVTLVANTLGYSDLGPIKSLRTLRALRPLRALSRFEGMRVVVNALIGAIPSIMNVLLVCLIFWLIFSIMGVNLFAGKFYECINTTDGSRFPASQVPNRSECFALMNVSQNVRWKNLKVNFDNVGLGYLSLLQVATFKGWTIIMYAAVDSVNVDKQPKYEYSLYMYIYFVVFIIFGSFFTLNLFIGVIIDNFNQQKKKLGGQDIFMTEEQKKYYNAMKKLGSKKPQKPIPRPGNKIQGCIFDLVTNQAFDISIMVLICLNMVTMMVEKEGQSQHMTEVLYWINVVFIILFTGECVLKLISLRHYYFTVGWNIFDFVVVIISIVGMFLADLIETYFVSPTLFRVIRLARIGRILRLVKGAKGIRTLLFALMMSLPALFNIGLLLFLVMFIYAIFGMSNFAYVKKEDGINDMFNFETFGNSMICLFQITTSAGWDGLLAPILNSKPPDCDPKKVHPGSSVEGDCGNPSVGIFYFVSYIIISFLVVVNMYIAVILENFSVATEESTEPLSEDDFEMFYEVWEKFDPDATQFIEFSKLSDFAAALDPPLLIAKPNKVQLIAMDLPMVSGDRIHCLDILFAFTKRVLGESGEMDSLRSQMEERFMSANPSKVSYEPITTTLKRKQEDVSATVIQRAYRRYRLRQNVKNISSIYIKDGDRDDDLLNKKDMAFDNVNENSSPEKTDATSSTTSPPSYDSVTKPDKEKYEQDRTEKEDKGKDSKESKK
# Target sequence in this assay (Q07699 whole entry partner, looked up): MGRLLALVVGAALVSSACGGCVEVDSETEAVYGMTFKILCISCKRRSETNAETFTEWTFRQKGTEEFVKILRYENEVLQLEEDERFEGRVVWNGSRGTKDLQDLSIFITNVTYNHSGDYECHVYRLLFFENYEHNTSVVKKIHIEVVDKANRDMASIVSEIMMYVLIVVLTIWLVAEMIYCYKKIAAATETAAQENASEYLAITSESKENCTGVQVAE
# hNav1.7 [2] = molecular target: T1, hNav1.7; test: Patch voltage clamp electrophysiology assay (EP), Syncropatch 384PE, CHO cells expressing Nav1.7; assay type: cell-based; settings: holding potential −50 mV, 7.5 min compound incubation; read-out: EP_SP hNav1.7 EVO IC50
# Excerpt: Example 64c. Electrophysiological Assay (EP) (In Vitro Assay)
# Patch voltage clamp electrophysiology allows for the direct measurement and quantification of block of voltage-gated sodium channels (NaV's), and allows the determination of the time- and voltage-dependence of block which has been interpreted as differential binding to the resting, open, and inactivated states of the sodium channel (Hille, B., Journal of General Physiology (1977), 69: 497-515).
# The following voltage clamp electrophysiology studies are performed on representative compounds using cells heterologously expressing Nav1.7 or Nav1.5 channels. cDNAs for Nav1.7 (NM 002977) and Nav1.5 (AC137587) are stably expressed in Chinese Hamstr Ovary (CHO) cells and CHL (Chinese Hamster Lung) cells respectively. Sodium currents are measured in the whole-cell configuration using Syncropatch 384PE ([…], Germany). 1NPC®-384 chips with custom medium resistance and single hole mode are used. Internal solution consists of (in mM): […], 10CsCl, 20EGTA, and 10Hepes (pH adjusted to 7.2); and external solution contains (in mM): 60NMDG, 80NaCl, 4 KCl, 1MgCl2, 2CaCl2, 2D-Glucose monohydrate, 10Hepes (pH adjusted to 7.4 with NaOH).
# After system flushing, testing compounds are dissolved in external solution containing 0.1% Pluronic F-127. The chip is moved into the measuring head and the instrument primes the chip with external and internal solutions. 10 μl cells are added to the chip from a cell hotel, and a negative pressure of −50 mBar is applied to form a seal. Following treatment with seal enhancer solution and wash-off with external solution, negative pressure of −250 mbar is applied for 1 second to achieve the whole-cell configuration, followed by three washing steps in external solution. 20 μl of compounds is added to 40 μl in each well (1:3 dilution of compounds), and after mixing, 20 μl is removed so the volume is retained at 40 ul. After approximately 13 minutes recordings, 20 μl/well of 2 uM TTX, or 333 uM Tetracaine (for Nav1.5) is added to achieve full block.
# For voltage protocol, an holding potential of −50 mV is applied during the whole experiment. A depolarizing step is applied to −10 mV for 10 ms, followed by a hyperpolarization step to −150 mV for 20 ms to allow channel recovery from inactivation. A second depolarizing step is applied from −150 mV to −10 mV for 10 ms, where currents are measured to derive blocking effects of compounds. Inhibition is determined based on 7.5 min of compound incubation.
# Target sequence in this assay (Q15858 other isoform, or with tags, fused parts or gaps): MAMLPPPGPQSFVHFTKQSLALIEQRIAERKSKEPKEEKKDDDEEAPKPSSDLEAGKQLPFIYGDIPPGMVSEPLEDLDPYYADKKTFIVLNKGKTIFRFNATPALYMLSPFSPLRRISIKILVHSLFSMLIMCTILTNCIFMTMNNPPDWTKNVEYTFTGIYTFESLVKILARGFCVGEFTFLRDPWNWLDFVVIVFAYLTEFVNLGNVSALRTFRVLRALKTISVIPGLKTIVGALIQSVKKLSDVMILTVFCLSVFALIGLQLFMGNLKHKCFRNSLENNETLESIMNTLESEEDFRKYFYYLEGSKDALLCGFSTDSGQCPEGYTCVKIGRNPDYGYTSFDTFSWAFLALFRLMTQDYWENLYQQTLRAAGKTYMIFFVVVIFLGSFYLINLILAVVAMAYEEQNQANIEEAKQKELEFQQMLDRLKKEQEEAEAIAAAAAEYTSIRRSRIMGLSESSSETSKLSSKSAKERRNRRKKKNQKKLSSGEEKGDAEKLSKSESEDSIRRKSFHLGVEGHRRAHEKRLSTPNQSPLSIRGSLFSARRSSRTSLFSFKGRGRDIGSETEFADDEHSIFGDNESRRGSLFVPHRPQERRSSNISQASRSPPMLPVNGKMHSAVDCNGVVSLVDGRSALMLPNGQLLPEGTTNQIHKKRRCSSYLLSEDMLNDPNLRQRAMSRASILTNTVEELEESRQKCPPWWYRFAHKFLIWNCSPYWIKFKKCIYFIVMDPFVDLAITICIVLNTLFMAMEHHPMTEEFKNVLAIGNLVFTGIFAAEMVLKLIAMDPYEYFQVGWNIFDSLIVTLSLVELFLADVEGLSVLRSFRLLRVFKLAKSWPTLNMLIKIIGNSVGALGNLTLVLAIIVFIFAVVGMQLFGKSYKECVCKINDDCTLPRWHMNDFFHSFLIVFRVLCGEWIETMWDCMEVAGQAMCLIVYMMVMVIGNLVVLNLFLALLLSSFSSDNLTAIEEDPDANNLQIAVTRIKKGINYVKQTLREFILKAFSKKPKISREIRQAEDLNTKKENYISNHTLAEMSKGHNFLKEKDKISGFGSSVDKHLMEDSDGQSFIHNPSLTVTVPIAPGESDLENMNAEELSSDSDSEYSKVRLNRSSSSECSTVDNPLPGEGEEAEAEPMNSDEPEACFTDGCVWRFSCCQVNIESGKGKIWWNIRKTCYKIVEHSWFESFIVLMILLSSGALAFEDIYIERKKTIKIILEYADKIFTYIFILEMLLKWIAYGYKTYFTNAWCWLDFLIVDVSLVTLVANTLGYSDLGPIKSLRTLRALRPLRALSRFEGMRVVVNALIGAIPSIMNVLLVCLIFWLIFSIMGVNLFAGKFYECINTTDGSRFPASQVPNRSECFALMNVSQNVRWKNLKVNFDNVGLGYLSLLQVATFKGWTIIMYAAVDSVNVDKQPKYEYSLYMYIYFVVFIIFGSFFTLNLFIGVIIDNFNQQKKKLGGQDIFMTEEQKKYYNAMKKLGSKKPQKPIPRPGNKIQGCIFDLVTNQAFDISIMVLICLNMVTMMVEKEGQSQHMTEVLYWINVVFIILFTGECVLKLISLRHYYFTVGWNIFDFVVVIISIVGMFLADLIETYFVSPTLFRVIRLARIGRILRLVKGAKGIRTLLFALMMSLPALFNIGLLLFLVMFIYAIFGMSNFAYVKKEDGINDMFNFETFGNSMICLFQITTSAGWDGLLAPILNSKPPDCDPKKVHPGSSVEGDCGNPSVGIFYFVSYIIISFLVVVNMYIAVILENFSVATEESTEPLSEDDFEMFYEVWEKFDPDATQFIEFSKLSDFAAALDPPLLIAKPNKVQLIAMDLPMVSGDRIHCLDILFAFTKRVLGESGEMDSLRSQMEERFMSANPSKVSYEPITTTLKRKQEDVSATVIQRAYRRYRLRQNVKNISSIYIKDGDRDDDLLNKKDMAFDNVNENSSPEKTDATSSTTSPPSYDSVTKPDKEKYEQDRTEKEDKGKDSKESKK
Molecule,IC50 (hNav1.7 [1]) [nM],IC50 (hNav1.7 [2]) [nM]
"6-(((1S,2S,4S)-2-(dimethylamino)-4-(6-(trifluoromethyl)pyridin-2-yl)cyclohexyl)oxy)-2-methyl-N-(pyrimidin-4-yl)pyridine-3-sulfonamide [Example 51]",0.985,4.59
"CN(C)[C@H]1C[C@@H](c2cccc(OC(F)(F)F)c2)CC[C@@H]1Nc1ccc(S(=O)(=O)Nc2ccncn2)cn1 [Example 8, 6-(((1S,2S,4S)-2-(dimethylamino)-4-(3-(trifluoromethoxy)phenyl)cyclohexyl)amino)-N-(pyrimidin-4-yl)pyridine-3-sulfonamide formate]",7.12,0.574
"O=S(=O)(Nc1ccncn1)c1ccc(N[C@H]2CC[C@H](c3cccc(OC(F)(F)F)c3)C[C@@H]2N2CCCC2)nc1 [Example 9, N-(pyrimidin-4-yl)-6-(((1S,2S,4S)-2-(pyrrolidin-1-yl)-4-(3-(trifluoromethoxy)phenyl)cyclohexyl)-amino)pyridine-3-sulfonamide formate]",4.11,0.664
"CN(C)[C@H]1C[C@@H](c2cccc(Cl)c2)CC[C@@H]1Oc1ncc(S(=O)(=O)Nc2ccncn2)cc1Cl [Example 27, 5-Chloro-6-(((1S,2S,4S)-4-(3-chlorophenyl)-2-(dimethylamino)cyclohexyl)oxy)-N-(pyrimidin-4-yl)pyridine-3-sulfonamide]",7.12,0.574
"Cc1nc(O[C@H]2CC[C@H](c3ccc(Cl)c(Cl)c3)C[C@@H]2N(C)C)ccc1S(=O)(=O)Nc1ccncn1 [Example 37, 6-(((1S,2S,4S)-4-(3,4-dichlorophenyl)-2-(dimethylamino)cyclohexyl)oxy)-2-methyl-N-(pyrimidin-4-yl)pyridine-3-sulfonamide]",1.36,0.301
"Cc1nc(O[C@H]2CC[C@H](c3cc(Cl)cc(Cl)c3)C[C@@H]2N(C)C)ccc1S(=O)(=O)Nc1ccncn1 [Example 50, 6-(((1S,2S,4S)-4-(3,5-dichlorophenyl)-2-(dimethylamino)cyclohexyl)oxy)-2-methyl-N-(pyrimidin-4-yl)pyridine-3-sulfonamide]",1.12,0.222
"Cc1nc(O[C@H]2CC[C@H](c3cccc(C(F)(F)F)c3)C[C@@H]2N(C)C)c(F)cc1S(=O)(=O)Nc1ccncn1 [Example 53, 6-(((1S,2S,4S)-2-(Dimethylamino)-4-(3-(trifluoromethyl)phenyl)cyclohexyl)oxy)-5-fluoro-2-methyl-N-(pyrimidin-4-yl)pyridine-3-sulfonamide formate]",0.615,
"Cc1ccc(C(F)(F)F)cc1[C@H]1CC[C@H](Oc2ccc(S(=O)(=O)Nc3ccncn3)c(C)n2)[C@@H](N(C)C)C1 [Example 54, 6-(((1S,2S,4S)-2-(dimethylamino)-4-(2-methyl-5-(trifluoromethyl)phenyl)cyclohexyl)oxy)-2-methyl-N-(pyrimidin-4-yl)pyridine-3-sulfonamide]",0.695,
"Cc1nc(O[C@H]2CC[C@H](c3cccc(C(F)(F)F)c3)C[C@@H]2N2CCOCC2)ccc1S(=O)(=O)Nc1ccncn1 [Example 55, 2-Methyl-6-(((1S,2S,4S)-2-morpholino-4-(3-(trifluoromethyl)phenyl)cyclohexyl)oxy)-N-(pyrimidin-4-yl)pyridine-3-sulfonamide]",1.72,
"Cc1ccc([C@H]2CC[C@H](Oc3ccc(S(=O)(=O)Nc4ccncn4)c(C)n3)[C@@H](N(C)C)C2)cc1C(F)(F)F [Example 56, 6-(((1S,2S,4S)-2-(dimethylamino)-4-(4-methyl-3-(trifluoromethyl)phenyl)cyclohexyl)oxy)-2-methyl-N-(pyrimidin-4-yl)pyridine-3-sulfonamide formate]",1.32,
"Cc1cc([C@H]2CC[C@H](Oc3ccc(S(=O)(=O)Nc4ccncn4)c(C)n3)[C@@H](N(C)C)C2)cc(C(F)(F)F)c1 [Example 58, 6-(((1S,2S,4S)-2-(dimethylamino)-4-(3-methyl-5-(trifluoromethyl)phenyl)cyclohexyl)oxy)-2-methyl-N-(pyrimidin-4-yl)pyridine-3-sulfonamide]",2.86,
"Cc1nc(O[C@H]2CC[C@H](c3cccc(CC(F)(F)F)c3)C[C@@H]2N(C)C)ccc1S(=O)(=O)Nc1ccncn1 [Example 59, 6-(((1S,2S,4S)-2-(dimethylamino)-4-(3-(2,2,2-trifluoroethyl)phenyl)cyclohexyl)oxy)-2-methyl-N-(pyrimidin-4-yl)pyridine-3-sulfonamide]",1.59,
"Cc1nc(O[C@H]2CC[C@H](c3cccc(C(F)(F)F)c3C)C[C@@H]2N(C)C)ccc1S(=O)(=O)Nc1ccncn1 [Example 60, 6-(((1S,2S,4S)-2-(dimethylamino)-4-(2-methyl-3-(trifluoromethyl)phenyl)cyclohexyl)oxy)-2-methyl-N-(pyrimidin-4-yl)pyridine-3-sulfonamide]",3.51,
"COc1cc(S(=O)(=O)Nc2ccncn2)cnc1O[C@H]1CC[C@H](c2cccc(C(F)(F)F)c2)C[C@@H]1N(C)C [Example 61, 6-(((1S,2S,4S)-2-(Dimethylamino)-4-(3-(trifluoromethyl)phenyl)cyclohexyl)oxy)-5-methoxy-N-(pyrimidin-4-yl)pyridine-3-sulfonamide formate]",1.9,
"Cc1nc(O[C@H]2CC[C@H](c3ccc(Cl)c(C(F)(F)F)n3)C[C@@H]2N(C)C)ccc1S(=O)(=O)Nc1ccncn1 [Example 62, 6-(((1S,2S,4S)-4-(5-chloro-6-(trifluoromethyl)pyridin-2-yl)-2-(dimethylamino)-cyclohexyl)oxy)-2-methyl-N-(pyrimidin-4-yl)pyridine-3-sulfonamide]",1.89,
"CN(C)[C@H]1C[C@@H](c2cccc(SC(F)(F)F)c2)CC[C@@H]1Oc1ccc(S(=O)(=O)Nc2ccncn2)cn1 [Example 63, 6-(((1S,2S,4S)-2-(Dimethylamino)-4-(3-((trifluoromethyl)thio)phenyl)cyclohexyl)oxy)-N-(pyrimidin-4-yl)pyridine-3-sulfonamide]",0.635,

# — US12209075B2, “Pyridine-sulfonamide derivatives as sodium channel inhibitors” (GENENTECH, INC., priority 2018, dated 2025)
